Test results from PubChem BioAssay (NCI).
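Results reflect a 48-hour exposure of cells in 96-well plates to compound at five concentrations. At the TGI there is no net growth.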

Legend:
Test in all cases: NCI tumour cell line growth inhibition, 48 h
[1] = test system: RXF 393 renal
[2] = test system: UACC-257 melanoma
[3] = test system: OVCAR-3 ovarian
[4] = test system: K-562 leukemia
[5] = test system: SK-MEL-28 melanoma
[6] = test system: ACHN renal
[7] = test system: A498 renal
[8] = test system: MOLT-4 leukemia
[9] = test system: SNB-19 CNS
[10] = test system: SR leukemia
[11] = test system: HL-60(TB) leukemia
[12] = test system: MDA-MB-231 breast
[13] = test system: OVCAR-8 ovarian
[14] = test system: EKVX NSCLC
[15] = test system: IGROV1 ovarian
[16] = test system: NCI-H460 lung
[17] = test system: MCF7 breast
[18] = test system: OVCAR-5 ovarian
[19] = test system: HCT-15 colon
[20] = test system: KM12 colon
[21] = test system: MDA-N
[22] = test system: MDA-MB-435
[23] = test system: OVCAR-4 ovarian
[24] = test system: RPMI-8226 leukemia
[25] = test system: T-47D breast
[26] = test system: U251 CNS
[27] = test system: NCI-H226 lung
[28] = test system: A549 NSCLC
[29] = test system: SN12C renal
[30] = test system: COLO 205 colon
[31] = test system: DU-145 prostate
[32] = test system: SW-620 colon
[33] = test system: PC-3 prostate
[34] = test system: SK-MEL-5 melanoma
[35] = test system: HS 578T breast
[36] = test system: NCI-H23 lung
[37] = test system: SNB-75 CNS
[38] = test system: TK-10 renal
[39] = test system: HOP-92 NSCLC
[40] = test system: MALME-3M melanoma
[41] = test system: CAKI-1 renal
[42] = test system: BT-549 breast
[43] = test system: HT29 colon
[44] = test system: NCI-H522 lung
[45] = test system: HCC-2998 colon
[46] = test system: HOP-62 NSCLC
[47] = test system: UO-31 renal
[48] = test system: SK-MEL-2 melanoma
[49] = test system: SF-539 CNS
[50] = test system: M14 melanoma
[51] = test system: NCI/ADR-RES ovarian
[52] = test system: SF-268 CNS
[53] = test system: LOX IMVI melanoma
[54] = test system: UACC-62 melanoma
[55] = test system: 786-0 renal
[56] = test system: SF-295 CNS
[57] = test system: HCT-116 colon
[58] = test system: SK-OV-3 ovarian
[59] = test system: CCRF-CEM leukemia

Work on c1ccc2c(c1)c1c(n2CCOCCCN2CCCCC2)CCCC1 yielded a TGI [1] of 25.1 µM, a TGI [2] of 32.9 µM and a TGI [3] of 30.7 µM. For the same molecule, the TGI [4] was 30.9 µM, the TGI [5] was 38.5 µM and the TGI [6] was 28.4 µM. It also gave a TGI [7] of 91.9 µM, a TGI [8] of 19.6 µM and a TGI [9] of 75.4 µM. The TGI [10] was 35.1 µM, the TGI [11] was 30.4 µM and the TGI [12] was 40.1 µM. For the same molecule, the TGI [13] was 32.5 µM, the TGI [14] was 62.5 µM and the TGI [15] was 29.2 µM. For the same molecule, the TGI [16] was 29.8 µM, the TGI [17] was 31.5 µM and the TGI [18] was 30 µM. The TGI [19] was 27.6 µM, the TGI [20] was 30 µM and the TGI [21] was 47.8 µM. For the same molecule, the TGI [22] was 33.8 µM, the TGI [23] was 57 µM and the TGI [24] was 92 µM. It also gave a TGI [25] of 43.9 µM, a TGI [26] of 30.5 µM and a TGI [27] of 32.5 µM. It also gave a TGI [28] of 39.2 µM, a TGI [29] of 34.3 µM and a TGI [30] of 45.5 µM. For the same molecule, the TGI [31] was > 100 µM, the TGI [32] was 39.6 µM and the TGI [33] was 33.1 µM. It also gave a TGI [34] of 40.7 µM, a TGI [35] of 47.8 µM and a TGI [36] of 37.9 µM. For the same molecule, the TGI [37] was 38.7 µM, the TGI [38] was 31.9 µM and the TGI [39] was 58.1 µM. It also gave a TGI [40] of 33.3 µM, a TGI [41] of 39.3 µM and a TGI [42] of 29.6 µM. The TGI [43] was 24.7 µM, the TGI [44] was 29.8 µM and the TGI [45] was 33.7 µM. For the same molecule, the TGI [46] was 30.6 µM, the TGI [47] was 25.4 µM and the TGI [48] was 37.6 µM. The TGI [49] was 31.3 µM, the TGI [50] was > 100 µM and the TGI [51] was 40.6 µM. The TGI [52] was 99.8 µM.
With CC(C)(C)OC(=O)C1CCC/C1=N/Nc1ccc([N+](=O)[O-])cc1[N+](=O)[O-] (stereo not drawn) the TGI [1] was > 100 µM, the TGI [3] was > 100 µM and the TGI [4] was > 100 µM. For the same molecule, the TGI [5] was > 100 µM, the TGI [6] was > 100 µM and the TGI [7] was 65.4 µM. The TGI [8] was > 100 µM, the TGI [53] was > 100 µM and the TGI [9] was > 100 µM. The TGI [54] was > 100 µM, the TGI [10] was > 100 µM and the TGI [11] was > 100 µM. For the same molecule, the TGI [12] was > 100 µM, the TGI [13] was > 100 µM and the TGI [14] was 89.9 µM. The TGI [55] was > 100 µM, the TGI [15] was > 100 µM and the TGI [16] was > 100 µM. The TGI [17] was > 100 µM, the TGI [18] was > 100 µM and the TGI [19] was > 100 µM. For the same molecule, the TGI [20] was > 100 µM, the TGI [56] was 88.9 µM and the TGI [21] was > 100 µM. For the same molecule, the TGI [22] was 53.2 µM, the TGI [23] was > 100 µM and the TGI [24] was > 100 µM. For the same molecule, the TGI [25] was 88.1 µM, the TGI [26] was 56.1 µM and the TGI [27] was > 100 µM. For the same molecule, the TGI [57] was 78.5 µM, the TGI [28] was > 100 µM and the TGI [29] was > 100 µM. The TGI [30] was > 100 µM, the TGI [31] was > 100 µM and the TGI [32] was > 100 µM. For the same molecule, the TGI [33] was > 100 µM, the TGI [34] was 29.3 µM and the TGI [35] was > 100 µM. For the same molecule, the TGI [36] was 63.5 µM, the TGI [37] was 73.9 µM and the TGI [38] was > 100 µM. For the same molecule, the TGI [39] was > 100 µM, the TGI [40] was > 100 µM and the TGI [41] was > 100 µM. For the same molecule, the TGI [42] was 93.2 µM, the TGI [43] was > 100 µM and the TGI [58] was > 100 µM. For the same molecule, the TGI [44] was > 100 µM, the TGI [45] was > 100 µM and the TGI [46] was > 100 µM. The TGI [47] was > 100 µM, the TGI [50] was > 100 µM and the TGI [51] was > 100 µM. For the same molecule, the TGI [59] was > 100 µM and the TGI [52] was > 100 µM.
